Tests used:
Assay type in all cases: cell-based
Details in all cases: after 10, 20, 40 and 60 minutes at all dilutions 1:100, 1:200, 1:400, 1:800
[1] = test system: Pseudomonas aeruginosa; test: Antimicrobial testing by agar dilution, Ps. aeruginosa
Procedure: (§1) The antimicrobial properties of the 4-[4,4-bis(4-chlorophenyl)-2,5-dioxoimidazolidin-1-yl]butanoic acid were studied by the method of agar dilution. Test solutions of each compound was prepared in concentration of 1% using dimethylformamide as a solvent then they are diluted in physiological solution to obtain the final experimental dilutions 1:100, 1:200, 1:400, 1:800. The effect of these substances are compared with furacillin in a controllable study. The testing microbes used were gram positive bacteria Staphylococcus aereus, gram negative bacteria Escherichia Coli, Pseudomonas aeruginosa and Candida albicans fungi were taken. The experiments used for this survey were meat-pentonlu agar (EPA) for cultivation of bacteria and Saburo environment for fungi. Each experiment used iml of test solution on each plate 500 min. Add 2 drops of emulsified with microbes feel. All experimental samples were taken from the agar after 10, 20, 40, 60 minutes in the environment on the basis of Patrk planted. Bacteria were cultivated at a temperature of 37° C. for 1 day and the mushroom was kept in a thermostat for […] at a temperature of 28° C. in the. Then results were checked.

[2] = test system: Candida albicans; test: Antimicrobial testing by agar dilution, Candida albicans
Procedure: as §1

[3] = test system: Escherichia Coli; test: Antimicrobial testing by agar dilution, E. Coli
Procedure: as §1

[4] = test system: Staphylococcus aereus; test: Antimicrobial testing by agar dilution, St. Aereus
Procedure: as §1

Measured: inhibition activity (summary in words)

O=C(O)CCCN1C(=O)NC(c2ccc(Cl)cc2)(c2ccc(Cl)cc2)C1=O [4-[4,4-bis(4-chlorophenyl)-2,5-dioxoimidazolidin-1-yl]butanoic acid]
higher inhibition activity: all assays above
